The values below come from patent publication US11692194B2, “Modulating expression of polypeptides via new gene switch expression systems” (Precigen, Inc., priority 2017, dated 2023).

The subject of test [1] is RTS-mbIL-15 in CD19 CAR T cells. In words: Western blot of mbIL-15 expression. In kind it is cell-based, human. Particulars: CD19 CAR+RTS-mbIL-15 cells, veledimex 2-3 days after four rounds of stimulation. The method, then: PBMC were nucleofected with plasmids of Sleeping Beauty system to express CD19-specific CAR under constitutive promoter (CD19 CAR alone), or CD19-specific CAR and mbIL-15 both under constitutive promoters (CD19 CAR+constitutive-mbIL-15) or CD19-specific CAR under constitutive promoter and RTS-mbIL-15 (CD19 CAR+RTS-mbIL-15). Nucleofected cells were cultured in presence of AaPC as described in Example 1.
After four rounds of stimulations, cells were cultured in absence (CD19 CAR alone, CD19 CAR+constitutive-mbIL-15 and CD19 CAR+RTS-mbIL-15) or presence (CD19 CAR+RTS-mbIL-15) of veledimex for 2-3 days. Cell lysates were prepared for western blot analysis. Approximately 10 μg lysate/lane of NuPAGE 10% Bis-Tris gel was loaded. Proteins were transferred from gel to a polyvinylidene fluoride (PVDF) membranes using the iBlot® (Life Technologies) semi-dry transfer apparatus. Membrane was blocked using a 5% (w/v) powdered milk solution in a PBS+Tween-20 (PBST; 1×PBS+0.05% Tween-20) solution stained with goat anti-human IL-15 (R&D Systems) primary antibody and rabbit anti-goat IgG HRP (KPL Laboratories) secondary antibody. […]
Image of the western blot were captured on the FluorChem™ E Imager (ProteinSimple, San Jose, Calif.) system using the Digital Darkroom software and AlphaView® software (ProteinSimple). […] In CD19 CAR+constitutive-mbIL-15 positive control, expression of mbIL-15 was detected.
(In western blotting, separated proteins are transferred to a membrane and probed.)

Test [2] concerns gene switch controlled mbIL-15 expression in CD19-specific CAR T cells. In words: Flow cytometry of mbIL-15 expression, veledimex ON-OFF-ON, SB gene switch CD19 CAR-T cells. In kind it is cell-based, human. The method, then:
Various DNA plasmids expressing a SB transposon system, i.e. SB11, membrane bound IL-15 (mbIL-15), and chimeric antigen receptor (CAR), were transfected to peripheral blood mononuclear cells (PBMC) via nucleofection to redirect T cell specificity (FIG. 1).
On day 0, 20 million PBMC were resuspended in 100 μL of Amaxa Human T cell Nucleofector solution (Cat. no. VPA-1002; Lonza, Basel, Switzerland) mixed with a total of 15 μg of transposons and 5 μg of transposase (SB11) and electroporated.
The following day (day 1) cells were counted, and CAR expression was measured by flow cytometry. CAR T Cells were stimulated with either γ-irradiated (100 Gy) or mitomycin C treated AaPCs at a 1:1 ratio. The AaPC cells used were K562-AaPC expressing CD19 antigen. Cultures were supplemented with IL-21 (30 ng/ml) only for the first round of stimulation and subsequently with recombinant human IL-2 (50 IU/ml) and IL-21 (30 ng/ml) (Pepro Tech) for remaining stimulations. T cell cultures were phenotyped at the end of each stimulation cycle, which typically lasted 7 days. The cultures were phenotyped for CAR expression by multi-parameter flow cytometry utilizing either Protein L or anti-idiotype antibody that recognizes CD19-specific CAR. Cultures were also closely monitored for the outgrowth of NK cells (defined as CD3negCD56+ population) and were removed from the CAR T cell cultures when the percentage exceeded 10% of total cell populations using magnetic beads for specific for CD56 (Stem Cell Technologies and/or Miltenyi Biotec), according to the manufacturer's instructions.
CD19-specific T cells were generated from mononuclear cells (MNC) derived from PB or UCB using SB transposition to introduce the CAR followed by addition of AaPC to numerically expand the T cells in a CAR-dependent manner.
For flow cytometry analysis to assess expression of various markers and gene(s) of interest, cells were gently resuspended and cell number, and viability were measured using Trypan blue exclusion method with the Countess instrument. Cell diameter size was also recorded. 5×10^5 cells for each for the samples were harvested at 330×g for 4 min at 10° C. for antibody staining. Harvested cells were incubated on ice for at least 15 min with 10% human AB serum in HBSS. Antibody cocktails containing fluorescently conjugated antibodies included one or more of antibodies specific to CD4 (Clone RPA-T4), CD8 (Clone SK1), CD3 (Clone UCHT1), CD56, CD19-specific CAR (anti-idiotype antibody), IL-15, and IL-15Rα, in HBSS+0.1% BSA+2 mM EDTA. The prepared antibody cocktails and associated fluorescence minus one/isotype control were added to stain the cell samples, and then the samples were incubated on ice for 30 min. The samples were then washed then with FACS buffer (HBSS+0.5% BSA+2 mM EDTA) and stained with Fixable Viability Dye (eBiosciences) for 30 min on ice. Cells were washed with FACS buffer and then fixed with a 4% paraformaldehyde solution (BD Cytofix; BD Biosciences). All samples were run on a LSR II flow cytometer, a Fortessa X-20 flow cytometer (BD Biosciences) or iQue Screener Plus (Intellicyt) and data was analyzed using FlowJo V10 (TreeStar, Ashland, Oreg.) or iQue Screener software.
For induction of expression using ligand (veledimex), AaPC stimulated CAR-T cells were harvested at 1×10^6 cells/ml. Either veledimex or DMSO (to keep DMSO concentration constant in both cultures) was added to the cultures. Veledimex was used at a concentration of 20 nM, 50 nM, 100 nM or as described. Cells were then cultured at 37° C. in presence of veledimex or DMSO for 2-3 days. After 2-3 days in culture, 5×10^5 cells for each for the samples were harvested at 330×g for 4 min at 10° C. for antibody staining. Harvested cells were incubated on ice for at least 15 min with 10% human AB serum in HBSS. […]

For test [3], the system named is RTS-IL-12 in EGFRvIII-CAR T cells. Briefly: Veledimex dose-response of IL-12, ELISA. In kind it is cell-based. How it is done: EGFRvIII-CAR T cells with or without RTS-IL-12 were expanded ex vi by three successive rounds of stimulation with EGFRvIII^+ AaPCs. T cells were then treated with varying doses of veledimex from 0 nM (DMSO control) to 100 nM. At 48 h post veledimex treatment, culture supernatants were harvested analyzed for IL-12 levels by ELISA. EGFRvIII-CAR expression in all groups was confirmed with flow cytometry and was stable with increasing doses of veledimex (data not shown) as expected with CAR expression under control of a constitutive promoter.

As to `CCC[C@@H](N(NC(=O)c1cccc(OC)c1CC)C(=O)c1cc(C)cc(C)c1)C(C)(C)C` [veledimex, N-[(1R)-1-(1,1-dimethylethyl)butyl]-N′-(2-ethyl-3-methoxybenzoyl)-3,5-dimethylbenzohydrazide], the “mbIL-15 expression by western blot” value in test [1] is “strong expression of mbIL-15”. Also, in test [2] (2 day incubation at 100, 25, 6.25, 1.56, 0.4 and 0 nM, gated FSC/SSC/LIVE/CD3+), the “mbIL-15 expression versus veledimex concentration” value is given as “dose response”. For the same molecule, the “expression of mbIL-15 post ligand addition” value in test [2] (day 29 post nucleofection, gated on CD19-specific CAR positive populations) is “turned on”. Further, in test [2] (day 35 post nucleofection, gated on CD19-specific CAR positive populations), the “expression of mbIL-15 post ligand withdrawal” value is reported as “turned off”. The “expression of mbIL-15 after re-introduction of ligand” value in test [2] (day 40 post nucleofection, gated on CD19-specific CAR positive populations) is listed as “maintained”; in test [2] (day 48 post nucleofection, gated on CD19-specific CAR positive populations), “continuously maintained”; in test [2] (day 50 post nucleofection, gated on CD19-specific CAR positive populations) it was “continuously maintained”. The “IL-12 production versus veledimex dose” value in test [3] (0 nM to 100 nM, 48 h post treatment) is listed as “dose dependent”. Moreover, the “EGFRvIII-CAR expression with increasing doses of veledimex” value in test [3] (flow cytometry, data not shown) is listed as “stable”.
